Measurements as given in patent US20230407243A1, “GENETIC PLATFORM TO INVESTIGATE THE FUNCTIONS OF BACTERIAL DRUG EFFLUX PUMPS” (priority 2022, published 2023).
Read-outs that look alike come from different tables or passages of the source.

Experiments:
Assay type in all cases: cell-based, Escherichia coli
[1] = system: E. coli EKO-35; assay: microbe, parasite or virus in culture; conditions: for Fold change of MICs: EKO-35 compared to EKO-35 (reference); for MIC: Escherichia coli, EKO35, technical duplicate
In short: (§1)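 Overnight LB cultures were grown at 37 °C with aeration, then washed into PBS, pH 7.4, to OD600 ~1.0. A 1/2000 dilution in MHB II was exposed to compound dilution series for 18 h at 37 °C. The MIC was taken from corrected OD600.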

[2] = system: wild-type E. coli K-12 str. BW25113; assay: microbe, parasite or virus in culture; conditions: Escherichia coli, BW25113, technical duplicate
In short: as §1

[3] = system: E. coli ΔtolC; assay: microbe, parasite or virus in culture; conditions: for MIC: Escherichia coli, 18 h, read-out: Minimum Inhibitory Concentration, ΔtolC; for Minimum inhibitory concentration (MIC), ΔtolC: Table 10, without pore, technical duplicate
In short: as §1

[4] = system: EKO-35 araC::mdtEF Pore; assay: MIC susceptibility profiling, porinated efflux platform; conditions: for Fold changes of MICs: EKO-35 araC::mdtEF Pore compared to EKO-35-Pore; for MIC: Escherichia coli, Table 14A, porinated, technical duplicate, read-out: Minimum inhibitory concentration, EKO-35 araC::mdtEF Pore
In short: (§2)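 Strains carry the fhuA ΔC/Δ4L pore integrated between glmS and pstS under a constitutive promoter, with pore activity checked by vancomycin susceptibility. Overnight LB cultures were adjusted in PBS pH 7.4 to OD600 ~1.0 and diluted 1/2000 into MHB II. 2-fold compound titrations were read by OD600 after 18 h at 37 °C.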

[5] = system: EKO-35 araC::macAB Pore; assay: as above; conditions: for Fold changes of MICs: EKO-35 araC::macAB Pore compared to EKO-35-Pore; for MIC: Escherichia coli, EKO-35 araC::macAB Pore, technical duplicate, read-out: Minimum inhibitory concentration
In short: as §2

[6] = system: EKO-35 araC::mexCD Pore; assay: as above; conditions: for Fold changes of MICs: EKO-35 araC::mexCD Pore compared to EKO-35-Pore; for MIC: Escherichia coli, EKO-35 araC::mexCD Pore, technical duplicate, read-out: Minimum inhibitory concentration
In short: as §2

[7] = system: EKO-35 araC::acrB Pore; assay: as above; conditions: for Fold changes of MICs: EKO-35 araC::acr-B Pore compared to EKO-35-Pore
In short: as §2

[8] = system: EKO-35 araC::emrKY Pore; assay: as above; conditions: for Fold changes of MICs: EKO-35 araC::emrKY Pore compared to EKO-35-Pore; for MIC: Escherichia coli, EKO-35 araC::emrKY Pore, technical duplicate, read-out: Minimum inhibitory concentration
In short: as §2

[9] = system: EKO-35 araC::acrD Pore; assay: as above; conditions: for Fold changes of MICs: EKO-35 araC::acrD Pore compared to EKO-35-Pore; for MIC: Escherichia coli, Table 14A, porinated, technical duplicate, read-out: Minimum inhibitory concentration, EKO-35 araC::acrD Pore
In short: as §2

[10] = system: EKO-35 araC::emrAB Pore; assay: as above; conditions: for Fold changes of MICs: EKO-35 araC::emrAB Pore compared to EKO-35-Pore; for MIC: Escherichia coli, EKO-35 araC::emrAB Pore, technical duplicate, read-out: Minimum inhibitory concentration
In short: as §2

[11] = system: EKO-35 araC::mdtBC Pore; assay: as above; conditions: for Fold changes of MICs: EKO-35 araC::mdtBC Pore compared to EKO-35-Pore; for MIC: Escherichia coli, EKO-35 araC::mdtBC Pore, technical duplicate, read-out: Minimum inhibitory concentration
In short: as §2

[12] = system: EKO-35 araC::acrEF Pore; assay: as above; conditions: for Fold changes of MICs: EKO-35 araC::acrEF Pore compared to EKO-35-Pore; for MIC: Escherichia coli, Table 14A, porinated, technical duplicate, read-out: Minimum inhibitory concentration, EKO-35 araC::acrEF Pore
In short: as §2

[13] = system: EKO-35 araC::acrBD408A Pore; assay: as above; conditions: for Fold changes of MICs: EKO-35 araC::acrBD408A Pore compared to EKO-35-Pore; for MIC: Escherichia coli, EKO-35 araC::acrBD408A Pore, technical duplicate, read-out: Minimum inhibitory concentration
In short: as §2

[14] = system: EKO-35-Pore; assay: MIC susceptibility profiling, porinated strain; conditions: for Fold changes of MICs: EKO-35-Pore compared to EKO-35-Pore (reference); for MIC: Escherichia coli
In short: as §2

[15] = system: wild-type (WT) K-12-Pore; assay: microbe, parasite or virus in culture; conditions: Escherichia coli, technical duplicate
In short: as §2

[16] = system: ΔtolC-Pore; assay: microbe, parasite or virus in culture; conditions: for MIC: Escherichia coli, 18 h, read-out: Minimum inhibitory concentration, ΔtolC-Pore; for Minimum inhibitory concentration (MIC), Pore ΔtolC: Table 10, with pore, technical duplicate
In short: as §2

[17] = system: EKO-35 araC::mdtEF; assay: MIC susceptibility profiling, efflux platform; conditions: for Fold change of MICs: EKO-35 araC::mdtEF compared to EKO-35; for MIC: Escherichia coli, Table 13A, non-porinated, technical duplicate, read-out: Minimum Inhibitory Concentration, EKO-35 araC::mdtEF
In short: as §1

[18] = system: EKO-35 araC::mdtBC; assay: MIC susceptibility profiling, efflux platform; conditions: for Fold change of MICs: EKO-35 araC::mdtBC compared to EKO-35; for MIC: Escherichia coli, Table 13B, non-porinated, technical duplicate, read-out: Minimum Inhibitory Concentration, EKO-35 araC::mdtBC
In short: as §1

[19] = Table 10, without pore, read-out: Minimum inhibitory concentration (MIC), EKO-35
[20] = Table 13A, non-porinated, read-out: Minimum Inhibitory Concentration, EKO-35
[21] = Table 10, without pore, read-out: Minimum inhibitory concentration (MIC), K-12
[22] = Table 13A, non-porinated, read-out: Minimum Inhibitory Concentration, K-12
[23] = Table 14A, porinated, technical duplicate, read-out: Minimum inhibitory concentration, EKO-35-Pore
[24] = Table 10, with pore, read-out: Minimum inhibitory concentration (MIC), Pore K-12
[25] = Table 14A, porinated, read-out: Minimum inhibitory concentration, K-12 (WT)-Pore

In the case of `CC[C@H]1OC(=O)[C@H](C)[C@@H](O[C@H]2C[C@@](C)(OC)[C@@H](O)[C@H](C)O2)[C@H](C)[C@@H](O[C@@H]2O[C@H](C)C[C@H](N(C)C)[C@H]2O)[C@](C)(O)C[C@@H](C)CN(C)[C@H](C)[C@@H](O)[C@]1(C)O` [azithromycin], the “Fold change of MICs” value [1] is reported as 1 fold, the MIC [1, 19] is reported as 0.781 µg/mL and the MIC [1, 20] is reported as 0.781 µg/mL. The MIC [2, 21] was 6.25 µg/mL, the MIC [2, 22] was 6.25 µg/mL and the MIC [3] was 0.781 µg/mL. For the same molecule, the “Minimum inhibitory concentration (MIC), ΔtolC” value [3] was 0.781 µg/mL, the “Fold changes of MICs” value [4] was 4 fold and the MIC [4] was 0.195 µg/mL. For the same molecule, the “Fold changes of MICs” value [5] was 2 fold, the MIC [5] was 0.098 µg/mL and the “fold increase of MIC over EKO-35” value ([5]; MacAB with a porinated OM) was 2 fold. For the same molecule, the “Fold changes of MICs” value [6] was 2 fold, the MIC [6] was 0.098 µg/mL and the “efflux pump-mediated resistance vs EKO-35-Pore” value ([6]; MexCD, OM compromised) was “no longer associated MexCD with resistance”. For the same molecule, the “Fold changes of MICs” value [7] was 4 fold, the MIC ([7]; Escherichia coli, Table 14A, porinated, technical duplicate, read-out: Minimum inhibitory concentration, EKO-35 araC::acrB Pore) was 0.195 µg/mL and the “Fold changes of MICs” value [8] was 1 fold. The MIC [8] was 0.024 µg/mL, the “Fold changes of MICs” value [9] was 1 fold and the MIC [9] was 0.024 µg/mL. The “Fold changes of MICs” value [10] was 1 fold, the MIC [10] was 0.049 µg/mL and the “Fold changes of MICs” value [11] was 1 fold. The MIC [11] was 0.049 µg/mL, the “Fold changes of MICs” value [12] was 4 fold and the MIC [12] was 0.195 µg/mL. The “Fold changes of MICs” value [13] was 2 fold, the MIC [13] was 0.098 µg/mL and the “Fold changes of MICs” value [14] was 1 fold. It also gave an MIC ([14]; Table 10, with pore, technical duplicate, read-out: Minimum inhibitory concentration (MIC), Pore EKO-35) of 0.049 µg/mL, an MIC [14, 23] of 0.049 µg/mL and an MIC [15, 24] of 0.391 µg/mL. For the same molecule, the MIC [15, 25] was 0.391 µg/mL, the MIC [16] was 0.049 µg/mL and the “Minimum inhibitory concentration (MIC), Pore ΔtolC” value [16] was 0.049 µg/mL. For the same molecule, the “Fold change of MICs” value [17] was 8 fold, the MIC [17] was 6.25 µg/mL and the “Fold change of MICs” value [18] was 1 fold. For the same molecule, the MIC [18] was 0.781 µg/mL.

`O=C(N[C@H](CO)[C@H](O)c1ccc([N+](=O)[O-])cc1)C(Cl)Cl` [chloramphenicol] was tested, and the “Fold change of MICs” value [1] was 1 fold, the MIC [1, 19] was 0.781 µg/mL and the MIC [1, 20] was 0.781 µg/mL. For the same molecule, the MIC [2, 21] was 6.5 µg/mL, the MIC [2, 22] was 6.25 µg/mL and the MIC [3] was 1.56 µg/mL. For the same molecule, the “Minimum inhibitory concentration (MIC), ΔtolC” value [3] was 1.563 µg/mL, the “Fold changes of MICs” value [4] was 1 fold and the MIC [4] was 0.781 µg/mL. For the same molecule, the “Fold changes of MICs” value [5] was 1 fold, the MIC [5] was 0.781 µg/mL and the “Fold changes of MICs” value [6] was 1 fold. The MIC [6] was 0.781 µg/mL, the “Fold changes of MICs” value [7] was 4 fold and the “Fold changes of MICs” value [8] was 1 fold. For the same molecule, the MIC [8] was 0.391 µg/mL, the “Fold changes of MICs” value [9] was 1 fold and the MIC [9] was 0.781 µg/mL. For the same molecule, the “Fold changes of MICs” value [10] was 1 fold, the MIC [10] was 0.781 µg/mL and the “Fold changes of MICs” value [11] was 1 fold. The MIC [11] was 0.781 µg/mL, the “Fold changes of MICs” value [12] was 1 fold and the MIC [12] was 0.781 µg/mL. For the same molecule, the “Fold changes of MICs” value [13] was 1 fold, the MIC [13] was 0.781 µg/mL and the “Fold changes of MICs” value [14] was 1 fold. It also gave an MIC ([14]; read-out: Minimum inhibitory concentration (MIC), Pore EKO-35) of 0.781 µg/mL, an MIC [14, 23] of 0.781 µg/mL and an MIC [15, 24] of 3.12 µg/mL. The MIC [15, 25] was 3.12 µg/mL, the MIC [16] was 0.781 µg/mL and the “Minimum inhibitory concentration (MIC), Pore ΔtolC” value [16] was 0.781 µg/mL. The “Fold change of MICs” value [17] was 1 fold, the MIC [17] was 0.781 µg/mL and the “Fold change of MICs” value [18] was 1 fold. It also gave an MIC [18] of 0.781 µg/mL.
